Test results reported in PubChem BioAssay AID1996.
Values after ≈ are worked out from the molar mass of the structure shown.

Details: buffer; pH 7.4; 200.0 µM

SMILES | solubility kinetic [µg/mL]
COC(CNc1nc(SC)nc2sc3c(c12)CCN(C)C3)OC | 52.4 (≈ 148 µM)
Cc1nc2ccccc2c(=O)n1-c1ccc([N+](=O)[O-])cc1 | > 42.2
CC1CCCCN1C(=O)CNCC1CCCO1.O=C(O)C(=O)O (centres undefined) | > 49.6
COc1ccc(C(=O)N[C@H](C(=O)Nc2sccc2C(N)=O)C(C)C)cc1 | > 56.3
CC(C)CNC(=O)C1CCN(CC2CCCCC2)CC1.O=C(O)C(=O)O | > 55.6
NS(=O)(=O)c1ccc(CNC(=O)c2ccc3ccccc3n2)cc1 | 3.9 (≈ 11.4 µM)
COc1cc(N2Cc3ccccc3C2)ccc1C=O | 1.8 (≈ 7.11 µM)
Cc1ccc(S(=O)(=O)N2CCOCC2)cc1C(=O)N1CCc2ccccc21 | 54.3 (≈ 141 µM)
CS(=O)(=O)N1CCCC(C(=O)Nc2ccc(F)cc2)C1 (centres undefined) | > 45.1
CC(C)NC[C@H](O)COc1cccc2ccccc12.Cl | > 44.4
N=C1C(c2nc3ccccc3[nH]2)=C(O)CN1C1CCCCC1 | 0.4 (≈ 1.35 µM)
c1ccc2c(c1)OCCc1c-2[nH]c2ccccc12 | 3 (≈ 12.8 µM)
COC(=O)[C@@H](N)CCCN=C(N)N[N+](=O)[O-].Cl | > 40.5
Cc1cccc(C)c1N1C(=O)[C@@H]2C(c3ccccc3Cl)=NO[C@@H]2C1=O | 39.6 (≈ 112 µM)
CN(C)CCCNC(=O)N1c2ccccc2Sc2ccccc21 | > 49.1
Cc1ccc(C(=O)ONC(=O)c2ccc(Cl)cc2)cc1[N+](=O)[O-] | 46.8 (≈ 140 µM)
O=C1NC(c2ccccc2Br)=N/C1=C\c1ccco1 | 13.6 (≈ 42.9 µM)
Cc1ccc(C(=O)NC(C)CCc2ccccc2)cc1S(=O)(=O)N1CCOCC1 (centres undefined) | 5.6 (≈ 13.4 µM)
Cc1ccc(NC(=O)Nc2cccc(F)c2)nc1 | 1.3 (≈ 5.3 µM)
O=C(COC(=O)c1ccc[n+]([O-])c1)Nc1cc([N+](=O)[O-])ccc1Cl | > 52.8

SMILES | solubility kinetic [µg/mL]
COc1ccc(N2CC(NC(=O)N(C)CCC#N)CC2=O)cc1 (centres undefined) | 46.7 (≈ 148 µM)
Cc1ccsc1CN(C)CC(=O)NCC(=O)Nc1ccc(F)c(F)c1F | 10.8 (≈ 28 µM)
CC(C(=O)c1ccccc1)[n+]1cccc(C(N)=O)c1.[Br-] (centres undefined) | > 50.3
Cc1ccccc1NC(=O)c1cc[n+]([O-])cc1 | > 34.2
CCCCS(=O)(=O)N1CCCC(C(=O)Oc2ccccc2)C1 (centres undefined) | 13.9 (≈ 42.7 µM)
COc1ccc2c(c1)c(C(C)=O)c(C)n2CCc1ccccc1 | < 0.7
CC(=O)c1ccc(N2CCN(C(C)C(=O)Nc3ccc4c(c3)OCCO4)CC2)cc1 (centres undefined) | 5.1 (≈ 12.5 µM)
COc1ccc(-c2cncnc2-c2ccc(OC)cc2O)cc1 | 38.6 (≈ 125 µM)
COc1ccc(N(CC(=O)N2CCOCC2)S(C)(=O)=O)cc1OC | > 53.8
COc1ccc2c(COC(=O)CNS(=O)(=O)c3ccccc3)cc(=O)oc2c1 | 46 (≈ 114 µM)
COc1ccccc1N1C(=O)CSC1=NC(=O)c1ccccc1 | 3 (≈ 9.19 µM)
O=C(Nc1cccc(Cl)c1)N1CCc2ccccc2C1 | 1.9 (≈ 6.63 µM)
CCc1ccc(NC(=O)Cn2cc([N+](=O)[O-])nc2C)cc1 | 6.7 (≈ 23.2 µM)
COC(=O)c1nc[nH]c1C(=O)OC | > 27.6
Cn1c(N)c(N2CCCCC2)c(=O)n(CC(=O)Nc2cccc(C#N)c2)c1=O | > 57.4
CC(=O)Nc1ccc2c(c1)CCCC2=O | 30.2 (≈ 149 µM)
O=S(=O)(c1ccccc1)N1CCN(c2ccccc2)CC1 | 0.4 (≈ 1.32 µM)
CSc1ncccc1C(=O)NCc1nnc2ccccn12 | > 44.9
CCOc1ccccc1NC(=O)CN1C(=O)C(C)SC(C)C1=O (centres undefined) | 34.5 (≈ 103 µM)
O=c1ccc2c([nH]1)CCCCCCCCCC2 | 5.2 (≈ 22.3 µM)

SMILES | solubility kinetic [µg/mL]
O=c1[nH]c(=S)n(C2CC2)c(O)c1C=NCCc1ccccc1 | < 0.2
CCOC(=O)Cn1cnc2scc(-c3ccc(C)c(C)c3)c2c1=O | 22.5 (≈ 65.7 µM)
CC(C)(C)NC(=O)CCCCCCCC(=O)NC(C)(C)C | > 44.8
COc1ccc2oc(C(=O)Nc3nc(C)cs3)c(C)c2c1 | 4.8 (≈ 15.9 µM)
O=C(Nc1nc2cc3c(cc2s1)OCCO3)c1cccs1 | 0.6 (≈ 1.88 µM)
CCOC(=O)c1oc2ccccc2c1NC(=O)C(C)(C)C | 22.6 (≈ 78.1 µM)
CCn1ccc(C(=O)N2CCN(c3ncccn3)CC2)n1 | > 43
O=C(O)C1CCC(CNS(=O)(=O)c2ccccc2)CC1 (centres undefined) | > 44.6
O=C(CN1CCCCC1)Nc1nc(-c2ccc(Cl)cc2)cs1 | < 0.2
O=C(Cc1ccc(Br)cc1)Nc1ccccc1N1CCCC1 | 2.6 (≈ 7.24 µM)
COc1cc(/C=C(/C#N)C(=O)NCc2ccccc2)cc(OC)c1OC | 20 (≈ 56.8 µM)
O=C(O)c1ccc(Nc2ccc3nonc3c2[N+](=O)[O-])cc1 | 44.9 (≈ 150 µM)
Cc1ccccc1NC(=O)COC(=O)c1cccnc1 | > 40.5
Cc1cc(C(=O)OCC(N)=O)c(C)n1-c1ccccc1 | 40.1 (≈ 147 µM)
Cc1cc(=O)[nH]c(SCC(=O)Nc2ccc(N3CCCCC3)cc2)n1 | 28.5 (≈ 79.5 µM)
COc1cc(CCC(C)NCc2ccccc2)ccc1O (centres undefined) | > 42.8
CCOC(=O)C1CCN(C/C=C/c2ccccc2[N+](=O)[O-])CC1 | 39.3 (≈ 123 µM)
CC1CCN(CC(=O)Nc2ccc3c(c2)OCO3)CC1 | > 41.5
Nc1ccccc1SCC(=O)Nc1cccc2ccccc12 | 32.6 (≈ 106 µM)
